Columns and labels:
Assay type in all cases: in vivo
[1] = tested on: Polygonum convolvulus (wild buckwheat); test: Greenhouse post-emergence treatment of Polygonum convolvulus; conditions: scale 0 (no damage) to 100 (complete destruction)
From the text: (§1) The culture containers used were plastic flowerpots containing loamy sand with approximately 3.0% of humus as the substrate. The seeds of the test plants were sown separately for each species.
(§2) For the post-emergence treatment, the test plants were first grown to a height of 3 to 15 cm, depending on the plant habit, and only then treated with the active ingredients which had been suspended or emulsified in water. For this purpose, the test plants were either sown directly and grown in the same containers, or they were first grown separately as seedlings and transplanted into the test containers a few days prior to treatment.
(§3) Depending on the species, the plants were kept at 10-25° C. or 20-35° C. The test period extended over 2 to 4 weeks. During this time, the plants were tended, and their response to the individual treatments was evaluated.
(§4) Evaluation was carried out using a scale from 0 to 100. 100 means no emergence of the plants, or complete destruction of at least the aerial moieties, and 0 means no damage, or normal course of growth. A good herbicidal activity is given at values of at least 80 and a very good herbicidal activity is given at values of at least 90.

[2] = tested on: Amaranthus retroflexus L. (pigweed); test: Greenhouse post-emergence treatment of Amaranthus retroflexus L.; conditions: scale 0 (no damage) to 100 (complete destruction)
From the text: as §1, §2, §3, §4

[3] = tested on: Chenopodium album (fat-hen); test: Greenhouse post-emergence treatment of Chenopodium album; conditions: scale 0 (no damage) to 100 (complete destruction)
From the text: as §1, §2, §3, §4

[4] = tested on: Echinochloa crus-galli (barnyard grass); test: Greenhouse post-emergence treatment of Echinochloa crus-galli; conditions: application rate 500 [kg/ha], scale 0 (no damage) to 100 (complete destruction)
From the text: as §1, §2, §3, §4

[5] = tested on: Setaria viridis (green foxtail); test: Greenhouse post-emergence treatment of Setaria viridis; conditions: application rate 500 [kg/ha], scale 0 (no damage) to 100 (complete destruction)
From the text: as §1, §2, §3, §4

CCC(CCc1noc2nc(C3CC3)cc(C(=O)O)c12)=NO (mixture of isomers) [I.a.79]
damage [%] ([1]; application rate 500 [kg/ha]): 85%
damage [%] ([2]; application rate 500 [g/ha]): 100%

CCC(CCc1noc2nc(C3CC3)cc(C(=O)O)c12)=NOC (mixture of isomers) [I.a.80]
damage [%] ([1]; application rate 500 [kg/ha]): 100%
damage [%] ([2]; application rate 500 [g/ha]): 100%
damage [%] ([3]; application rate 500 [kg/ha]): 98%

C=CCOc1noc2nc(C3CC3)cc(C(=O)O)c12 [I.a.44]
damage [%] ([2]; application rate 1000 [g/ha]): 100%
damage [%] ([3]; application rate 1000 [kg/ha]): 100%

CON=CCCc1noc2nc(C3CC3)cc(C(=O)O)c12 [I.a.59]
damage [%] ([2]; application rate 500 [g/ha]): 98%
damage [%] ([3]; application rate 500 [kg/ha]): 98%

O=C(NCC(F)(F)F)NN=CCCc1noc2nc(C3CC3)cc(C(=O)O)c12 [I.a.60]
damage [%] ([1]; application rate 500 [kg/ha]): 95%

O=C(O)c1cc(C2CC2)nc2onc(OCc3ccccc3)c12 [I.a.66]
damage [%] ([2]; application rate 1000 [g/ha]): 100%
damage [%] ([3]; application rate 1000 [kg/ha]): 100%

COCCOc1noc2nc(C3CC3)cc(C(=O)O)c12 [I.a.67]
damage [%] ([1]; application rate 1000 [kg/ha]): 98%
damage [%] ([3]; application rate 1000 [kg/ha]): 100%

CCC(=O)CCc1noc2nc(C3CC3)cc(C(=O)O)c12 [I.a.74]
damage [%] ([2]; application rate 500 [g/ha]): 98%
damage [%] ([3]; application rate 500 [kg/ha]): 98%

CCC(CCc1noc2nc(C3CC3)cc(C(=O)O)c12)=NN [I.a.81]
damage [%] ([3]; application rate 500 [kg/ha]): 75%

O=C(O)c1cc(C2CC2)nc2onc(SCc3ccccc3)c12 [I.a.85]
damage [%] [4]: 70%

O=C(O)c1cc(C2CC2)nc2onc(SC3CCCCC3)c12 [I.a.86]
damage [%] ([2]; application rate 500 [g/ha]): 95%

O=C(O)c1cc(C2CC2)nc2onc(SC3CCCC3)c12 [I.a.87]
damage [%] ([2]; application rate 500 [g/ha]): 80%
damage [%] ([3]; application rate 500 [kg/ha]): 70%
damage [%] [4]: 75%

O=C(O)c1cc(C2CC2)nc2onc(OC3CCCCC3Cl)c12 (stereo not shown) [I.a.88]
damage [%] ([2]; application rate 500 [g/ha]): 100%
damage [%] ([3]; application rate 500 [kg/ha]): 100%

O=C(O)c1cc(C2CC2)nc2onc(OC3COC3)c12 [I.a.89]
damage [%] ([2]; application rate 500 [g/ha]): 70%
damage [%] ([3]; application rate 500 [kg/ha]): 70%

O=C(O)c1cc(C2CC2)nc2onc(OC3CCCC3)c12 [I.a.91]
damage [%] ([2]; application rate 500 [g/ha]): 100%
damage [%] ([3]; application rate 500 [kg/ha]): 98%

O=C(O)c1cc(C2CC2)nc2onc(OC3CCC3)c12 [I.a.92]
damage [%] [5]: 85%
damage [%] ([2]; application rate 500 [g/ha]): 100%
damage [%] ([3]; application rate 500 [kg/ha]): 100%
